Test results published in patent US20230381134A1, “COCRYSTALS OF CANNABINOIDS” (PURISYS, LLC, priority 2020, published 2023).

Assays:
[1] = solid, ambient conditions / storage
Description: PXRD diffractograms were acquired on a PANalytical X'Pert Pro diffractometer using Ni-filtered Cu Ka (45 kV/40 mA) radiation and a step size of 0.03° 2θ and X'celerator™ RTMS (Real Time Multi-Strip) detector. Configuration on the incidental beam side: variable divergence slits (10 mm irradiated length), 0.04 rad Soller slits, fixed anti-scatter slit (0.50°), and 10 mm beam mask. Configuration on the diffracted beam side: variable anti-scatter slit (10 mm observed length) and 0.04 rad Soller slit. Samples were mounted flat on zero-background Si wafers.
PXRD diffractograms were acquired on a Bruker D8 Advance system (SN:2631) using Cu Ka (40 kV/40 mA) radiation and a step size of 0.03° 2θ and LynxEye detector. Configuration on the incident beam side: Goebel mirror, mirror exit slit (0.2 mm), 2.5 deg Soller slits, beam knife. Configuration on the diffracted beam side: anti-scatter slit (8 mm) and 2.5 deg. Soller slit. Samples were mounted flat on zero-background Si wafers.

[2] = molecular target: cannabinoid G-protein coupled receptor CB2 (Homo sapiens, UniProt P34972); settings: cited from earlier work
CB1 receptor = CB1 receptor (Homo sapiens, UniProt P21554); settings: cited from earlier work
[3] = Solubility of the cannabinol starting material in various solvents

Chain of cannabinoid G-protein coupled receptor CB2 (P34972 whole entry): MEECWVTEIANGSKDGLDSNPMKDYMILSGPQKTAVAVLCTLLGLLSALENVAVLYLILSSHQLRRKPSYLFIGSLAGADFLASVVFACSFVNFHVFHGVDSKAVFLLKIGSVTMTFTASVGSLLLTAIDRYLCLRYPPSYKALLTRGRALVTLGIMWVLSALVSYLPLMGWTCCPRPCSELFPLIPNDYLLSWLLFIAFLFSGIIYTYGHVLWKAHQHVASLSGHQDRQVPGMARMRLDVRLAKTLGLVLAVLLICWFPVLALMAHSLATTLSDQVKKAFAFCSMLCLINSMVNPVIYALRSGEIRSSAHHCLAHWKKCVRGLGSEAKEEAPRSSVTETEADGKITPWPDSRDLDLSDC
Chain of CB1 receptor (P21554 whole entry): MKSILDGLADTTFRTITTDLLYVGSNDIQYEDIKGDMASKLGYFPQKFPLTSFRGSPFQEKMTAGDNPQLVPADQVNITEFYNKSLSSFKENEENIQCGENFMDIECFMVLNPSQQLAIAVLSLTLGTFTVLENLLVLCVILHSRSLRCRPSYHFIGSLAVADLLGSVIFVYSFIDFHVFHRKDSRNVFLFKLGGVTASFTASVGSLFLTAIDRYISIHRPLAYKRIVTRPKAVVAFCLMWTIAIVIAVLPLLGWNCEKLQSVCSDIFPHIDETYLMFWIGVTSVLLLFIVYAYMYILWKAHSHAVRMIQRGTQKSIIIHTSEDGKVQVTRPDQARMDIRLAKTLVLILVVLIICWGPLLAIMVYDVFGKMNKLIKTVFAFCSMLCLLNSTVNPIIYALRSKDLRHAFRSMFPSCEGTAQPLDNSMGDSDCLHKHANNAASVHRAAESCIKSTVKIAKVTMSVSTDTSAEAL

CCCCCc1cc(O)c2c(c1)OC(C)(C)c1ccc(C)cc1-2.O=C(O)C1CCCN1 [Mono-L-Proline Cocrystal Group C]
physical stability by PXRD [1]: physically stable by PXRD for three days at ambient

CCCCCc1cc(O)c2c(c1)OC(C)(C)c1ccc(C)cc1-2 [cannabinol, 6,6,9-Trimethyl-3-pentyl-benzo[c]chromen-1-ol]
binding to CB2 [2]: preferentially binds
affinity for CB2 receptor relative to THC (fold lower) ([2]; relative to THC): about 3 fold
affinity for CB1 (CB1 receptor): minimal affinity
solubility ([3]; water (1% methanol)): < 20 mg/mL
solubility ([3]; water (1% methanol), 40 °C): < 20 mg/mL
solubility ([3]; water (denatured with 1% MeOH)): < 20 mg/mL
